The text below walks through data of US10011597B2 (APOGLYX AB, priority 2014, dated 2018).

Structures are written as SMILES.

The target of this experiment is T1, human aquaporin 9 (Homo sapiens, UniProt O43315).
T1 construct: expressed in transfected cells; host or cells: Human AQP9 cell line with tetracycline added to the medium
T1 sequence (O43315 1-295): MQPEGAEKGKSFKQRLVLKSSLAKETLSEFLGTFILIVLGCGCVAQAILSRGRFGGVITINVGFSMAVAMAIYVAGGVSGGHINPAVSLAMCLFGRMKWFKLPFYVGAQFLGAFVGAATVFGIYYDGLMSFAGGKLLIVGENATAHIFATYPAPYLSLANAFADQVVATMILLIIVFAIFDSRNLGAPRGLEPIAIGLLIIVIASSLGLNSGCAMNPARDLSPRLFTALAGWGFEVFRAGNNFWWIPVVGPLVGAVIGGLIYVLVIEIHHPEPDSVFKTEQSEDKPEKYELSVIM
The experiment in a line: Calcein quenching fluostar assay. Type of experiment: cell-based. The conditions noted are these: inhibition of human aquaporin 9; Human AQP9 cell line, tetracyclin-induced; 25° C. As to the method:
Calcein Quenching Fluostar Assay
A calcein quenching fluostar assay was performed in order to investigate the biological activity of the newly synthesized examples 1 to 57. This type of assay is disclosed in J. Biol. Chem., 2011, 286, 44319-44325 and Am. J. Physiol. Renal Physiol. (2010), 298, F224-230.
1) Two days prior to commencement of the assay, seed 10,000 cells/well of 96 well black clear bottom plate (Greiner Poly-lysin plate). A 1:1 mix of Dulbecco's Modified Eagle's Medium:Nutrient Mixture F-12 (DMEM: F12) was obtained from Gibco. Tetracycline stock of 5 mg/ml in 96% ethanol is used. Medium:DMEM/F12/10% Donor Bovine Serum, Human AQP9 cell line+1:270,000 tetracyclin, mouse AQP9 cell line+1:2,700,000 tetracycline.
2) Day of assay: Flick/slam off the medium and add 50 μl/well of loading solution: 5 ml DMEM/F12/10% Donor Bovine Serum, 25 μl Calcein AM—from freshly dissolved aliquot in 50 μl DMSO (VWR #734-1434), and 100 μl Probenecid.
3) Incubate the well for 90 minutes at 37° C.
4) Perform one wash with 75 μl wash buffer.
5) Add 75 μl of an example compound prepared in wash buffer per well.
Example compounds are prepared in 500 μl U bottom PP plates (NUNC). […] Substance in DMSO are added to row A; 180 μl of wash buffer+1% DMSO are added to rows B-H. 90 μl from row A are transferred and mixed with all other wells (up to row G) to make a 3-fold dilution series.
6) Assay in FLUOstar Optima at 25° C. Settings buffer addition at 135 μl seconds, add 75 μl/well, record time course for 30 seconds, add sucrose buffer 3.6 seconds into recording.
7) Normalization to initial in Excel.
8) Fit to “exponential decay” function in GraphPad Prism 5.0, then arrange half live shrinking values according to wells and fit dose-response curves.
The term IC50 denotes the midpoint of a concentration-inhibition curve. With `CCn1c(SCC(=O)Nc2nnc(-c3ccc(F)cc3)s2)nnc1-c1ccccn1` [Example 29, 2-{[4-Ethyl-5-(pyridin-2-yl)-4H-1,2,4-triazol-3-yl]sulfanyl}-N-[5-(4-fluorophenyl)-1,3,4-thiadiazol-2-yl]acetamide], the IC50 is 427 nM.
Regarding `CCn1c(SCC(=O)Nc2nnc(-c3ccc(F)cc3)s2)nnc1-c1cccnc1` [Example 30, 2-{[4-Ethyl-5-(pyridin-3-yl)-4H-1,2,4-triazol-3-yl]sulfanyl}-N-[5-(4-fluorophenyl)-1,3,4-thiadiazol-2-yl]acetamide], the IC50 is 110 nM.
Consider `CCn1c(SCC(=O)Nc2nnc(-c3ccc(F)cc3)s2)nnc1-c1ccncc1` [Example 31, 2-{[4-Ethyl-5-(pyridin-4-yl)-4H-1,2,4-triazol-3-yl]sulfanyl}-N-[5-(4-fluorophenyl)-1,3,4-thiadiazol-2-yl]acetamide], for which the IC50 is 99 nM.
As for `CCCn1c(SCC(=O)Nc2nnc(-c3ccc(OC)cc3)s2)nnc1-c1ccc(F)cc1` [Example 32, 2-{[5-(4-Fluorophenyl)-4-propyl-4H-1,2,4-triazol-3-yl]sulfanyl}-N-[5-(4-methoxyphenyl)-1,3,4-thiadiazol-2-yl]acetamide], the figure is 416 nM; as for `COc1ccc(-c2nnc(NC(=O)CSc3nnc(-c4ccc(F)cc4)n3C3CC3)s2)cc1` [Example 33, 2-{[4-Cyclopropyl-5-(4-fluorophenyl)-4H-1,2,4-triazol-3-yl]sulfanyl}-N-[5-(4-methoxyphenyl)-1,3,4-thiadiazol-2-yl]acetamide], 978 nM.
Under `CCn1c(SCC(=O)Nc2nnc(-c3ccc(O)cc3)s2)nnc1-c1ccc(F)cc1` [Example 34, 2-{[4-Ethyl-5-(4-fluorophenyl)-4H-1,2,4-triazol-3-yl]sulfanyl}-N-[5(4-hydroxyphenyl)-1,3,4-thiadiazol-2-yl]acetamide] stands 61 nM; under `CCn1c(SC(C)C(=O)Nc2nnc(-c3ccc(OC)cc3)s2)nnc1-c1ccc(F)cc1` (centres unmarked) [Example 35, 2-{[4-Ethyl-5-(4-fluorophenyl)-4H-1,2,4-triazol-3-yl]sulfanyl}-N-[5(4-methoxyphenyl)-1,3,4-thiadiazol-2-yl]propanamide], 301 nM; under `CCn1c(SCC(=O)Nc2nnc(-c3ccc(OS(C)(=O)=O)cc3)s2)nnc1-c1ccc(F)cc1` [Example 36, 4-[5-(2-{[4-Ethyl-5-(4-fluorophenyl)-4H-1,2,4-triazol-3-yl]sulfanyl}acetamido)-1,3,4-thiadiazol-2-yl]phenyl methanesulfonate], 129 nM.
Under `CCn1c(SCC(=O)Nc2nnc(-c3ccc(OCCOC)cc3)s2)nnc1-c1ccc(F)cc1` [Example 37, 2-{[4-ethyl-5-(4-fluorophenyl)-4H-1,2,4-triazol-3-yl]sulfanyl}-N-{5-[4-(2-methoxyethoxy)phenyl]-1,3,4-thiadiazol-2-yl}acetamide] stands 82 nM.
Regarding `CCn1c(SCC(=O)Nc2nnc(-c3ccccc3F)s2)nnc1-c1ccc(F)cc1` [Example 38, 2-{[4-ethyl-5-(4-fluorophenyl)-4H-1,2,4-triazol-3-yl]sulfanyl}-N-[5-(2-fluorophenyl)-1,3,4-thiadiazol-2-yl]acetamide], the IC50 was 190 nM.
As for `CCn1c(SCC(=O)Nc2nnc(-c3ccc(OC)cc3)s2)nnc1-c1cccc(Cl)c1` [Example 39, 2-{[5-(3-chlorophenyl)-4-ethyl-4H-1,2,4-triazol-3-yl]sulfanyl}-N-[5-(4-methoxyphenyl)-1,3,4-thiadiazol-2-yl]acetamide], the figure is 113 nM; as for `CCn1c(SCC(=O)Nc2nnc(-c3ccc(OC)cc3)s2)nnc1-c1ccc(Cl)cc1` [Example 40, 2-{[5-(4-chlorophenyl)-4-ethyl-4H-1,2,4-triazol-3-yl]sulfanyl}-N-[5-(4-methoxyphenyl)-1,3,4-thiadiazol-2-yl]acetamide], 810 nM; as for `CCn1c(SCC(=O)Nc2nnc(-c3ccc(OC)cc3)s2)nnc1-c1ccccn1` [Example 41, 2-{[4-ethyl-5-(pyridin-2-yl)-4H-1,2,4-triazol-3-yl]sulfanyl}-N-[5-(4-methoxyphenyl)-1,3,4-thiadiazol-2-yl]acetamide], 260 nM.
Turning to `CCn1c(SCC(=O)Nc2nnc(-c3ccc(F)cc3)s2)nnc1-c1ccc(Cl)cc1` [Example 43, 2-{[5-(4-chlorophenyl)-4-ethyl-4H-1,2,4-triazol-3-yl]sulfanyl}-N-[5-(4-fluorophenyl)-1,3,4-thiadiazol-2-yl]acetamide], the IC50 is 92 nM.
Regarding `O=C(CSc1nnc(-c2ccc(F)cc2)n1C1CC1)Nc1nnc(-c2ccc(F)cc2)s1` [Example 44, 2-{[4-cyclopropyl-5-(4-fluorophenyl)-4H-1,2,4-triazol-3-yl]sulfanyl}-N-[5-(4-fluorophenyl)-1,3,4-thiadiazol-2-yl]acetamide], the IC50 is 168 nM.
For `CCn1c(SCC(=O)Nc2nnc(-c3ccc(OC)c(F)c3)s2)nnc1-c1ccc(F)cc1` [Example 45, 2-{[4-ethyl-5-(4-fluorophenyl)-4H-1,2,4-triazol-3-yl]sulfanyl}-N-[5-(3-fluoro-4-methoxyphenyl)-1,3,4-thiadiazol-2-yl]acetamide], the IC50 was 182 nM.
As for `CCn1c(SCC(=O)Nc2nnc(-c3ccc(F)c(F)c3)s2)nnc1-c1ccc(F)cc1` [Example 46, N-[5-(3,4-difluorophenyl)-1,3,4-thiadiazol-2-yl]-2-{[4-ethyl-5-(4-fluorophenyl)-4H-1,2,4-triazol-3-yl]sulfanyl}acetamide], the figure is 385 nM.
Under `CCn1c(SCC(=O)Nc2nnc(-c3ccc(C#N)cc3)s2)nnc1-c1ccc(F)cc1` [Example 47, N-[5-(4-cyanophenyl)-1,3,4-thiadiazol-2-yl]-2-{[4-ethyl-5-(4-fluorophenyl)-4H-1,2,4-triazol-3-yl]sulfanyl}acetamide] stands 114 nM; under `COC(=O)CCn1c(SCC(=O)Nc2nnc(-c3ccc(OC)cc3)s2)nnc1-c1ccccc1` [Example 48, Methyl 3-{3-[({[5-(4-methoxyphenyl)-1,3,4-thiadiazol-2-yl]carbamoyl}methyl)sulfanyl]-5-phenyl-4H-1,2,4-triazol-4-yl}propanoate], 117 nM.
As for `COc1ccc(-c2nnc(NC(=O)CSc3nnc(-c4ccccc4)n3CCN)s2)cc1` [Example 49, 2-{[4-(2-aminoethyl)-5-phenyl-4H-1,2,4-triazol-3-yl]sulfanyl}-N-[5-(4-methoxyphenyl) 1,3,4 thiadiazol-2-yl]acetamide], the figure is 373 nM.
Turning to `COc1ccc(-c2nnc(NC(=O)CSc3nnc(-c4ccccc4)n3CC(N)=O)s2)cc1` [Example 50, 2-{[4-(carbamoylmethyl)-5-phenyl-4H-1,2,4-triazol-3-yl]sulfanyl}-N-[5-(4methoxyphenyl)-1,3,4-thiadiazol-2-yl]acetamide], the IC50 is 200 nM.
As for `COc1ccc(-c2nnc(NC(=O)CSc3nnc(-c4ccccc4)n3CCCO)s2)cc1` [Example 51, 2-{[4-(3-hydroxypropyl)-5-phenyl-4H-1,2,4-triazol-3-yl]sulfanyl}-N-[5-(4-methoxyphenyl)-1,3,4-thiadiazol-2-yl]acetamide], the figure is 86 nM; as for `COc1ccc(-c2nnc(NC(=O)CSc3nnc(-c4ccccc4)n3CCO)s2)cc1` [Example 52, 2-{[4-(3-hydroxyethyl)-5-phenyl-4H-1,2,4-triazol-3-yl]sulfanyl}-N-[5-(4-methoxyphenyl)-1,3,4-thiadiazol-2-yl]acetamide], 59 nM.
